From the supplement of paper PMC11061612

Tests used:
[1] = tested on: 647-V (Bladder Carcinoma); assay: Bliss excess, mean over the matrix (fraction); higher = more synergy
In short: (§1)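 Bliss excess equals the observed combination effect minus the expected value EA + EB − EA·EB, where EA and EB are the effects of each agent alone. Combination Emax is the second-highest inhibition within the matrix. Inhibition was scaled from CellTiter-Glo 2.0 luminescence, with 0 set by vehicle wells and 1 by blank wells, after 72 hours of two-drug dosing of cells plated in 1536-well plates.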

[2] = tested on: KG-1 (Acute Myeloid Leukemia); assay: as above
In short: as §1

[3] = tested on: NCI-H1688 (Small Cell Lung Carcinoma); assay: as above
In short: as §1

[4] = tested on: NOMO-1 (Acute Myeloid Leukemia); assay: as above
In short: as §1

[5] = tested on: RCC10RGB (Kidney Carcinoma); assay: as above
In short: as §1

[6] = tested on: SNU-61 (Colorectal Carcinoma); assay: as above
In short: as §1

A172 (Glioblastoma) = assay: combination Emax (second highest fraction inhibited in the dose matrix, 72 h); higher = more inhibition; extreme values may be limits of the assay
In short: as §1

[7] = tested on: BICR78 (Oral Cavity Carcinoma); assay: as above
In short: as §1

CS1 (Chondrosarcoma) = assay: as above
In short: as §1

[8] = tested on: EFM-192A (Breast Carcinoma); assay: as above
In short: as §1

[9] = tested on: EKVX (Non-Small Cell Lung Carcinoma); assay: as above
In short: as §1

EW-22 (Ewing's Sarcoma) = assay: as above
In short: as §1

[10] = tested on: HCC-827 (Lung Adenocarcinoma); assay: as above
In short: as §1

HCC38 (Breast Carcinoma) = assay: as above
In short: as §1

HuO9 (Osteosarcoma) = assay: as above
In short: as §1

MSTO-211H (Mesothelioma) = assay: as above
In short: as §1

[11] = tested on: P31-FUJ (Acute Myeloid Leukemia); assay: as above
In short: as §1

SK-MEL-1 (Melanoma) = assay: as above
In short: as §1

[12] = tested on: SW48 (Colorectal Carcinoma); assay: as above
In short: as §1

[13] = tested on: WSU-DLCL2 (B-Cell Non-Hodgkin's Lymphoma); assay: as above
In short: as §1

Row | SMILES | Bliss excess [1] | Bliss excess [2] | Bliss excess [3] | Bliss excess [4] | Bliss excess [5] | Bliss excess [6] | combination Emax (A172 (Glioblastoma)) | combination Emax [7] | combination Emax (CS1 (Chondrosarcoma)) | combination Emax [8] | combination Emax [9] | combination Emax (EW-22 (Ewing's Sarcoma)) | combination Emax [10] | combination Emax (HCC38 (Breast Carcinoma)) | combination Emax (HuO9 (Osteosarcoma)) | combination Emax (MSTO-211H (Mesothelioma)) | combination Emax [11] | combination Emax (SK-MEL-1 (Melanoma)) | combination Emax [12] | combination Emax [13]
1 | COc1cc2c(cc1OCCCCCOc1cc3c(cc1OC)C(=O)N1C=C(C)C[C@H]1C=N3)N=C[C@@H]1CC(C)=CN1C2=O [SG3199] + O=C(c1cc(Cc2n[nH]c(=O)c3ccccc23)ccc1F)N1CCN(C(=O)C2CC2)CC1 [Olaparib] (first compound max 0.001 µM, 7x7, partner max 10 µM) | -0.0289 | 0.0015 | -0.0264 | -0.0328 | -0.052 | -0.0453 | 0.363 | 0.131 | 0.178 | 0.129 | 0.0945 | 0.894 | 0.131 | 0.0919 | 0.2 | 0.124 | 0.124 | 0.134 | 0.0699 | 0.127
2 | CCc1c2c(nc3ccc(O)cc13)-c1cc3c(c(=O)n1C2)COC(=O)[C@]3(O)CC [SN-38] + CN(C)CCCOc1ccc(-c2ccc3ncc4c(c3c2)n(C2CCOCC2)c(=O)n4C)cn1 [AZD0156] (first compound max 0.3 µM, 7x7, partner max 1 µM) | 0.0291 | -0.0585 | -0.0222 | 0.034 | -0.0262 | -0.0134 | 0.81 | 0.786 | 0.821 | 0.174 | 0.188 | 0.951 | 0.526 | 0.682 | 0.989 | 0.804 | 0.979 | 0.538 | 0.826 | 0.944
3 | CC(=O)Nc1cccc(-n2c(=O)n(C3CC3)c(=O)c3c(Nc4ccc(I)cc4F)n(C)c(=O)c(C)c32)c1 [Trametinib] + Cc1nc(-c2cn3c(n2)-c2ccc(-c4cnn(C(C)(C)C(N)=O)c4)cc2OCC3)n(C(C)C)n1 [Taselisib] (first compound max 1 µM, 7x7, partner max 10 µM) | 0.106 | 0.131 | 0.127 | 0.0306 | -0.0186 | 0.0995 | 0.761 | 0.726 | 0.878 | 0.72 | 0.82 | 0.722 | 0.762 | 0.364 | 0.8 | 0.854 | 0.915 | 0.942 | 0.95 | 0.936
4 | CC1(C)CCC(CN2CCN(c3ccc(C(=O)NS(=O)(=O)c4ccc(NCC5CCOCC5)c([N+](=O)[O-])c4)c(Oc4cnc5[nH]ccc5c4)c3)CC2)=C(c2ccc(Cl)cc2)C1 [Venetoclax] + C1CN(CCC1(C(=O)N[C@@H](CCO)C2=CC=C(C=C2)Cl)N)C3=NC=NC4=C3C=CN4 [Capivasertib] (first compound max 1 µM, 7x7, partner max 3 µM) | -0.0247 | 0.041 | -0.0065 | -0.0342 | -0.0402 | -0.0321 | 0.289 | 0.323 | 0.324 | 0.379 | 0.302 | 0.905 | 0.273 | 0.244 | 0.488 | 0.251 | 0.896 | 0.208 | 0.267 | 1
5 | CC1(C)CCC(CN2CCN(c3ccc(C(=O)NS(=O)(=O)c4ccc(NCC5CCOCC5)c([N+](=O)[O-])c4)c(Oc4cnc5[nH]ccc5c4)c3)CC2)=C(c2ccc(Cl)cc2)C1 [Venetoclax] + C=CCn1c(=O)c2cnc(Nc3ccc(N4CCN(C)CC4)cc3)nc2n1-c1cccc(C(C)(C)O)n1 [AZD1775] (first compound max 1 µM, partner max 1 µM) | -0.0274 | 0.201 | -0.0067 | 0.0689 | -0.0374 | -0.0321 | 0.315 | 0.553 | 0.682 | 0.327 | 0.172 | 0.924 | 0.413 | 0.573 | 0.759 | 0.592 | 0.942 | 0.411 | 0.809 | 0.995
6 | CC1(C)CCC(CN2CCN(c3ccc(C(=O)NS(=O)(=O)c4ccc(NCC5CCOCC5)c([N+](=O)[O-])c4)c(Oc4cnc5[nH]ccc5c4)c3)CC2)=C(c2ccc(Cl)cc2)C1 [Venetoclax] + CCN(CCO)CCCOc1ccc2c(Nc3cc(CC(=O)Nc4cccc(F)c4)[nH]n3)ncnc2c1 [AZD2811] (first compound max 1 µM, 7x7, partner max 1 µM) | 0.0533 | 0.0766 | 0.0436 | 0.182 | -0.066 | -0.0084 | 0.423 | 0.245 | 0.434 | 0.212 | 0.178 | 0.924 | 0.254 | 0.253 | 0.336 | 0.394 | 0.932 | 0.292 | 0.958 | 0.758
7 | CC1(C)CCC(CN2CCN(c3ccc(C(=O)NS(=O)(=O)c4ccc(NCC5CCOCC5)c([N+](=O)[O-])c4)c(Oc4cnc5[nH]ccc5c4)c3)CC2)=C(c2ccc(Cl)cc2)C1 [Venetoclax] + CN(C)CCCOc1ccc(-c2ccc3ncc4c(c3c2)n(C2CCOCC2)c(=O)n4C)cn1 [AZD0156] (first compound max 1 µM, 7x7, partner max 1 µM) | -0.0036 | 0.0741 | 0.0209 | 0.0226 | -0.0677 | 0.0062 | 0.238 | 0.297 | 0.56 | 0.25 | 0.22 | 0.866 | 0.26 | 0.193 | 0.343 | 0.123 | 0.861 | 0.231 | 0.607 | 0.33
8 | CC1(C)CCC(CN2CCN(c3ccc(C(=O)NS(=O)(=O)c4ccc(NCC5CCOCC5)c([N+](=O)[O-])c4)c(Oc4cnc5[nH]ccc5c4)c3)CC2)=C(c2ccc(Cl)cc2)C1 [Venetoclax] + COc1cc(Nc2ncc3c(n2)-c2ccc(Cl)cc2C(c2c(F)cccc2OC)=NC3)ccc1C(=O)O [Alisertib] (first compound max 1 µM, 7x7, partner max 10 µM) | -0.0092 | 0.273 | 0.0566 | 0.0906 | -0.0943 | -0.0091 | 0.595 | 0.38 | 0.598 | 0.167 | 0.646 | 0.919 | 0.457 | 0.179 | 0.682 | 0.734 | 0.906 | 0.351 | 0.887 | 0.995
9 | CC1(C)CCC(CN2CCN(c3ccc(C(=O)NS(=O)(=O)c4ccc(NCC5CCOCC5)c([N+](=O)[O-])c4)c(Oc4cnc5[nH]ccc5c4)c3)CC2)=C(c2ccc(Cl)cc2)C1 [Venetoclax] + C[C@@H]1COCCN1C2=NC(=NC(=C2)C3(CC3)[S@](=N)(=O)C)C4=C5C=CNC5=NC=C4 [AZD6738] (first compound max 1 µM, 7x7, partner max 10 µM) | -0.0317 | 0.075 | 0.0294 | 0.015 | -0.0242 | 0.0295 | 0.595 | 0.603 | 0.701 | 0.299 | 0.214 | 0.929 | 0.33 | 0.531 | 0.814 | 0.596 | 0.968 | 0.391 | 0.752 | 0.969
10 | CC1(C)CCC(CN2CCN(c3ccc(C(=O)NS(=O)(=O)c4ccc(NCC5CCOCC5)c([N+](=O)[O-])c4)c(Oc4cnc5[nH]ccc5c4)c3)CC2)=C(c2ccc(Cl)cc2)C1 [Venetoclax] + C[C@@H](Nc1cc(F)cc(F)c1)c1cc(C(=O)N(C)C)cc2c(=O)cc(N3CCOCC3)oc12 [AZD8186] (first compound max 1 µM, 7x7, partner max 3 µM) | -0.0019 | 0.114 | -0.0385 | 0.0654 | -0.0866 | -0.0314 | 0.171 | 0.434 | 0.415 | 0.178 | 0.367 | 0.881 | 0.254 | 0.16 | 0.468 | 0.207 | 0.866 | 0.198 | 0.275 | 0.888
11 | CC1(C)CCC(CN2CCN(c3ccc(C(=O)NS(=O)(=O)c4ccc(NCC5CCOCC5)c([N+](=O)[O-])c4)c(Oc4cnc5[nH]ccc5c4)c3)CC2)=C(c2ccc(Cl)cc2)C1 [Venetoclax] + Cc1cc2ncnn2cc1Nc1ncc2c(n1)n(C1CCOCC1)c(=O)n2C [AZD7648] (first compound max 1 µM, 7x7, partner max 10 µM) | 0.0316 | 0.0848 | 0.0457 | 0.02 | -0.0536 | 0.0023 | 0.334 | 0.265 | 0.297 | 0.25 | 0.161 | 0.842 | 0.292 | 0.165 | 0.426 | 0.22 | 0.856 | 0.308 | 0.369 | 0.442
12 | CC1(C)CCC(CN2CCN(c3ccc(C(=O)NS(=O)(=O)c4ccc(NCC5CCOCC5)c([N+](=O)[O-])c4)c(Oc4cnc5[nH]ccc5c4)c3)CC2)=C(c2ccc(Cl)cc2)C1 [Venetoclax] + Cn1cnc2c(F)c(Nc3ccc(Br)cc3Cl)c(C(=O)NOCCO)cc21 [Selumetinib] (first compound max 1 µM, 7x7, partner max 3 µM) | -0.0064 | 0.0735 | -0.0333 | 0.0999 | -0.079 | 0.0136 | 0.206 | 0.323 | 0.278 | 0.11 | 0.343 | 0.855 | 0.184 | 0.109 | 0.177 | 0.172 | 0.871 | 0.872 | 0.52 | 0.375
